What was measured:
Format in all cases: cell-based, human
SMAD4 = test: RT-qPCR of SMAD4 mRNA in olfactory neurospheres treated with SB, LDN and TRIM; conditions: ONS cells
Method: Primary olfactory cells were dissociated into single cells and seeded onto Poly L-Lysine (Sigma) coated tissue culture dishes at 20,000 cells/cm^2 in sphering media, which consists of DMEM+1×ITS+[…]. Cells were then incubated at 37° C. with 5% CO2 until neurospheres started to form. This normally takes 2-3 days. Small neurospheres (<200 μm in diameter) were manually picked under a dissecting microscope (Leica) and collected for differentiation.
For olfactory neurosphere differentiation experiments, cells were cultured in ONS differentiation media, which consists of neural basal media+1×B27+1×L-glutamine+pen/strep+1×β-mercaptoethanol+AA+BDNF supplemented with combinations of SB, LDN and TRIM. Cells were differentiated for 3-4 days before collected for analysis. Media was changed on the second day.
RT-qPCR was performed on cDNA samples with a Rotor-Gene 6000 (Corbett) using SYBER green based assays (Qiagen). All samples were normalized to GAPDH and the relative expression of each gene was determined using the delta-delta CT method. The primer sequences used are as follows:
The ability for ONS to respond to the treatments of SB, LDN and TRIM was tested. QPCR was performed according to the methods described in the foregoing examples.

[1] = system: olfactory neurospheres (ONS); test: Olfactory neurosphere (ONS) neuronal differentiation, immunostaining and morphology; conditions: added to ONS differentiation media, 3-4 days
Method: Cells were fixed in 4% paraformaldehyde for 20 min and then blocked for 2 h at room temperature before incubated with the appropriate primary antibodies overnight at 4° C. The following primary antibodies were used: mouse β-III-tubulin (Sigma, 1:500), mouse N-cam (Dako, 1:100), mouse GFAP (Merk, 1:500), chicken Sox1 (Merk, 1:500), rabbit Nestin (Merk, 1:500), rabbit Neurofilament-Light (Merk, 1:500), rabbit Synapsin (Calbiochem, 1:500) and sheep Olfactory Marker Protein (Abcam, 1:500). Appropriate secondary antibodies were added and incubated for lh before samples were washed and mounted using Prolong Gold (Invitrogen) and analyzed using either a fluorescent microscope (Nikon) or a confocal microscope (Leica). All secondary antibodies were from Molecular Probes and diluted at 1:1000, except for anti-sheep secondary antibody, which was from Dako and diluted at 1:500.
Primary olfactory cells were dissociated into single cells and seeded onto Poly L-Lysine (Sigma) coated tissue culture dishes at 20,000 cells/cm^2 in sphering media, which consists of DMEM+1×ITS+50 μg/mL EGF+25 μg/mL FGF2. Cells were then incubated at 37° C. with 5% CO2 until neurospheres started to form. This normally takes 2-3 days. Small neurospheres (<200 μm in diameter) were manually picked under a dissecting microscope (Leica) and collected for differentiation. […]

olfactory primary cells = test: Olfactory primary cell culture differentiation, β-III-tubulin immunostaining; conditions: 100 μM TRIM added, in all conditions, 4-7 days

Row | SMILES | level of inhibition of SMAD4 (SMAD4; compared to cells cultured in the absence of inhibitors) | neurite morphology [1] | β-III-tubulin positive cells on addition of NOS inhibitor (olfactory primary cells) | mRNA level / expression of SMAD4 (SMAD4; compared to cells cultured without inhibitors)
1 | Cl.c1ccc2c(-c3cnn4cc(-c5ccc(N6CCNCC6)cc5)cnc34)ccnc2c1 [LDN193189, 4-(6-(4-(piperazin-1-yl)phenyl)pyrazolo[1,5-a]pyrimidin-3-yl)quinolone hydrochloride] | 80% | short neurites | – | –
2 | FC(F)(F)c1ccccc1-n1ccnc1 [TRIM, 1-(2-Trifluoromethylphenyl) Imidazole] | – | – | further increase in β-III-tubulin positive cells | –
3 | NC(=O)c1ccc(-c2nc(-c3ccc4c(c3)OCO4)c(-c3ccccn3)[nH]2)cc1 [SB431542, 4-[4-(1,3-benzodioxol-5-yl)-5-(2-pyridinyl)-1H-imidazol-2-yl]benzamide] | – | short neurites | – | no change
